In patent publication US10668043B2, “Potentiated antimicrobial agents” (priority 2014, dated 2020):

Tests used:
[1] = test system: E. coli; assay: Double dilution test; type: cell-based
From the text: (§1) The double dilution test is a MIC measurement test made on successive dilutions of the 2 products of the composition. […] The summary table expresses for each strain and for each dilution of the booster the measured antibiotic MIC.
(§2) The code enabling the results to be interpreted is the following one: no sign “^+” if the MIC is equivalent with and without booster, a sign “^+” if the value is lower with booster.

[2] = test system: Staphylococcus; assay: Double dilution test; type: cell-based; conditions: strain 8148
From the text: as §1, §2

Measured: amoxicillin MIC

CC1(C)S[C@@H]2[C@H](NC(=O)[C@H](N)c3ccc(O)cc3)C(=O)N2[C@H]1C(=O)O [Amox, amoxicillin]
16 µg/mL: [1]; strain 8156, cineol 2,500 mg/L | [1]; strain ATCC 25922, cineol 2,500 mg/L
8^: [1]; strain 8156, cineol 25,000 mg/L
0.5^+: [1]; strain 8151, cineol 10 mg/L | [1]; strain 8155, cineol 10 mg/L | [1]; strain 8156, cineol 10 mg/L | [1]; strain ATCC 25922, cineol 10 mg/L | [2]; cineol 10 mg/L
16^: [2]; cineol 25,000 mg/L
8 µg/mL: [1]; strain 8151, cineol 20 mg/L | [1]; strain 8151, cineol 37.5 mg/L | [1]; strain 8151, cineol 75 mg/L | [1]; strain 8151, cineol 150 mg/L | [1]; strain 8151, cineol 300 mg/L | [1]; strain 8151, cineol 600 mg/L | [1]; strain 8151, cineol 2,500 mg/L | [1]; strain 8151, cineol 5,000 mg/L | [1]; strain 8151, cineol […] | [1]; strain 8155, Amox, cineol 0 | [1]; strain 8155, cineol 20 mg/L | [1]; strain 8155, cineol 37.5 mg/L | [1]; strain 8155, cineol 75 mg/L | [1]; strain 8155, cineol 150 mg/L | [1]; strain 8155, cineol 300 mg/L | [1]; strain 8155, cineol 600 mg/L | [1]; strain 8155, cineol 2,500 mg/L | [1]; strain 8155, cineol 5,000 mg/L | [1]; strain 8155, cineol 10,000 mg/L | [1]; strain 8155, cineol […] | [1]; strain 8156, Amox, cineol 0 | [1]; strain 8156, cineol 20 mg/L | [1]; strain 8156, cineol 37.5 mg/L | [1]; strain 8156, cineol 75 mg/L | [1]; strain 8156, cineol 150 mg/L | [1]; strain 8156, cineol 300 mg/L | [1]; strain 8156, cineol 600 mg/L | [1]; strain 8156, cineol 5,000 mg/L | [1]; strain 8156, cineol 10,000 mg/L | [1]; strain 8156, cineol […] | [1]; strain ATCC 25922, Amox, cineol 0 | [1]; strain ATCC 25922, cineol 20 mg/L | [1]; strain ATCC 25922, cineol 37.5 mg/L | [1]; strain ATCC 25922, cineol 75 mg/L | [1]; strain ATCC 25922, cineol 150 mg/L | [1]; strain ATCC 25922, cineol 300 mg/L | [1]; strain ATCC 25922, cineol 600 mg/L | [1]; strain ATCC 25922, cineol 5,000 mg/L | [1]; strain ATCC 25922, cineol […] | [2]; Amox, cineol 0 | [2]; cineol 20 mg/L | [2]; cineol 37.5 mg/L | [2]; cineol 75 mg/L | [2]; cineol 150 mg/L | [2]; cineol 300 mg/L | [2]; cineol 600 mg/L | [2]; cineol 2,500 mg/L | [2]; cineol 5,000 mg/L | [2]; cineol […]
4^: [1]; strain 8155, cineol 25,000 mg/L
0.06^+: [1]; strain ATCC 25922, cineol 50,000 mg/L
0.25^+: [1]; strain 8151, cineol 50,000 mg/L | [1]; strain 8155, cineol 50,000 mg/L | [2]; cineol 50,000 mg/L
4 µg/mL: [2]; cineol 10,000 mg/L
4^+: [1]; strain 8151, cineol 10,000 mg/L | [1]; strain 8151, cineol 25,000 mg/L | [1]; strain 8156, cineol 50,000 mg/L | [1]; strain ATCC 25922, cineol 25,000 mg/L
